{
  "source": "patent US4524066A",
  "about": "“Process for the preparation of injectable chondroitin polysulfate” (Luitpold-Werk Chemisch-pharmazeutische Fabrik, priority 1981, dated 1985)",
  "key": {"Cats": {"tested_on": "Cats", "assay": "Acute toxicity, cats, i.v.", "assay_type": "in vivo"}, "Dogs": {"tested_on": "Dogs", "assay": "Acute toxicity, dogs, i.v.", "assay_type": "in vivo"}, "NMRI mice": {"tested_on": "NMRI mice", "assay": "Acute toxicity, NMRI mice, i.v.", "assay_type": "in vivo"}, "Wistar rats": {"tested_on": "Wistar rats", "assay": "Acute toxicity, Wistar rats, i.v.", "assay_type": "in vivo"}},
  "data": [
    {"substance": "chondroitin polysulfate", "values": [
      {"measurement": "LD50/7d", "setting": "Cats", "value": "> 1,000 mg/kg"},
      {"measurement": "LD50/7d", "setting": "Dogs", "value": "> 1,000 mg/kg"},
      {"measurement": "LD50/7d", "setting": "NMRI mice", "value": "> 3,500 mg/kg"},
      {"measurement": "LD50/7d", "setting": "Wistar rats", "value": "> 3,000 mg/kg"},
      {"measurement": "therapeutic benefit of daily doses", "setting": "humans; daily doses of up to 500 mg", "value": "therapeutically advantageous"},
      {"measurement": "therapeutic action in humans", "setting": "humans; single dosages 20-250 mg, in particular 30-150 mg, per individual in 0.2-2.0 ml", "value": "have a therapeutic action in humans"}
    ]}
  ]
}
